{
  "source": "patent US9370526B2",
  "about": "“Combination hormone replacement therapy (HRT) and melatonin to prevent and treat mammary cancer” (Duquesne University of the Holy Spirit, priority 2009, dated 2016)",
  "key": {"[1]": {"tested_on": "RNA expression in the lower mammary gland", "assay": "RNA expression in the lower mammary gland by microarray analysis", "assay_type": "in vivo, mice", "experimental": "FIG. 3 reports aggregated data regarding thousands of RNA fragments tested for over- or under-expression of more than one and one-half times more or less expression than in control, for mice treated with C/C (no hormone, no melatonin control), C/M (no hormone/melatonin), EMP/C (estrogen/mid progesterone (that is, half the recommended dose of progesterone, or 50 mg (P4)) but no melatonin) and EMP/M (estrogen/mid progesterone (that is, half the recommended dose of progesterone, or 50 mg (P4)) and melatonin)."}, "[2]": {"tested_on": "MMTV-neu mice (neu oncogene, mimics HER2+ breast cancer)", "assay": "Mammary tumor onset (latency) and incidence in MMTV-neu mice given oral HRT diet and/or nocturnal melatonin in drinking water", "assay_type": "in vivo", "text": "(§1) We studied the effects of the present combination therapy as follows. We chose a mouse model, MMTV-neu mice, which express the neu oncogene that mimics HER2+ breast cancer. In a population of mice, both melatonin and HRT were given orally to correlate with the dosage method in women, basing the dosing on diet based on the calories an average woman consumes daily, namely, 1800 kcal, but adjusting for the small size and metabolism of the mice. Estrogen+progestin HRT contained the bioidentical hormones 17β-estradiol (E2) at the currently recommended dosage for women (0.5 mg/1800 kcal) and progesterone (P4) at half of the recommended dose (50 mg/1800 kcal). For example, the daily mouse dose would be less than 500 mcg progesterone (P4). Melatonin was provided in the drinking water at a concentration of 15 mg/L (dose equivalent to a 5 mg tablet for women) only during the night to supplement the normal nocturnal surge in endogenous melatonin. Using drinking water rather than food to administer melatonin allowed the mice continual access to the control and HRT diets, instead of just during the night (dark cycle).\nReferring now to FIG. 1, survival curves are shown which represent the age of primary mammary tumor onset in weeks, on the x axis, and percent mammary tumor incidence on the y axis. FIG. 1a represents age of primary mammary tumor onset and incidence between control (C/V) vs. melatonin (C/M) groups, with C signifying no hormone administration, V signifying no melatonin administration, and M signifying melatonin administration. FIG. 1b represents control vs. HRT (HRT/V) groups, with C signifying no hormone administration, V signifying no melatonin administration, and with HRT signifying Hormone Replacement Therapy (in FIG. 1b, without melatonin, or “V”). FIG. 1c represents the results of HRT/V versus HRT/M administration (M=melatonin) and FIG. 1d represents the results of CN versus HRT/M administration. […] No change in body weight occurred as a result of the treatments. […] FIG. 1c represents HRT vs. HRT plus melatonin; FIG. 1d represents control versus HRT plus melatonin."}, "[3]": {"tested_on": "mammary tumors in MMTV-neu mice", "assay": "Mammary tumor growth and progression (tumor weight, volume, metastatic incidence), same study", "assay_type": "in vivo", "conditions": "compared to control animals (FIG. 2)", "text": "as §1"}},
  "data": [
    {"smiles": "COc1ccc2[nH]cc(CCNC(C)=O)c2c1", "note": "[melatonin]", "values": [
      {"measurement": "RNA expression changes (upregulation and downregulation), in words", "setting": "[1]", "result": "limited number of RNA expression changes"},
      {"measurement": "incidence of mammary cancer, in words", "setting": "[2]; compared to control animals", "result": "did not modify"},
      {"measurement": "latency of mammary cancer (age of primary tumor onset), in words", "setting": "[2]; compared to control animals", "result": "did not modify"},
      {"measurement": "incidence of mammary cancer (animals with tumor/animals in group)", "setting": "[2]; control 44/57", "result": "42/57"},
      {"measurement": "incidence of mammary cancer", "setting": "[2]; control 77%", "result": 74, "unit": "%"},
      {"measurement": "tumor volume", "setting": "[3]", "result": "significant decrease"},
      {"measurement": "tumor weight", "setting": "[3]", "result": "significant decrease"}
    ]}
  ]
}
